Assay results as given in US7122335B1, “Compounds and methods to enhance rAAV transduction” (priority 1999, dated 2006).
Peptide text beside a SMILES is read from it. * marks the point of attachment. Cbz = O=C(OCc1ccccc1)*

Assays:
[1] = tested on: primary human fibroblasts; type: cell-based; conditions: confluent fibroblasts, AV.GFP3ori MOI 1000, 96 hours post-infection; brefeldin A 10 μg/ml, vinblastine 22 μM, cytochalasin B 1 μM, NH4Cl 2 mM, chloroquine 20 μm, LLnL 400 μM, Z-LLL 4 μM
Procedure: FIG. 6. Primary confluent fibroblasts were infected with AV.GFP3ori virus at an MOI=1000 particles/cell following treatment with brefeldin A (10 μg/ml), vinblastine (22 μM), cytochalasin B (1 μM), NH4Cl (2 mM), chloroquine (20 μm), LLnL (400 μM), and Z-LLL (4 μM), final concentration indicated in brackets. Cells were harvested at 96 hours post-infection and the transduction efficiency was compared to untreated rAAV infected cells by FACS analysis for GFP expression. To control for non-specific effects caused by toxicity of the compounds, the percentage of live cells was also assessed by the absence of propidium iodide incorporation.
80% confluent human primary fibroblasts were infected with AV.GFP3ori at an moi of 1000 DNA particles/cell. FIG. 16A depicts GFP transgene expression in the absence (left photographs) and presence of 40 μM LLnL (right photographs) at 96 hours post-infection. […] Top and bottom panels represent bright field and FITC-channel fluorescent photomicrographs, respectively. The mean (+/−SEM, N=3) percentage of cells transduced with rAAV, as measured by FACS sorting of GFP expressing cells, is presented in the bar graph of FIG. 16B. […] In this study, rAAV from infected cells was first immunoprecipitated with anti-VP1,2,3 (AAV-2 capsid) monoclonal antibody followed by Western blot detection of ubiquitin side chains using an anti-ubiquitin monoclonal antibody. […] Epithelia were infected with AV.GFP3ori (10,000 particles/cell) from the basolateral surface following treatment with ubiquitin ligase inhibitor dipeptides (0.2 mM H-Leu-Ala-OH and 0.2 mM H-His-Ala-OH).
Initial studies were performed in confluent primary human fibroblasts since dose titrations and toxicity could be quickly assessed. Selected compounds were used to treat fibroblast monolayers prior to rAAV infection. rAAV transduction was assessed at 96 hours post-infection by FACS analysis, and the percentage of dead cells was simultaneously assessed by incorporation of propidium iodide.
These tripeptides are structurally related to chloroquine but have different lipid solubility and specificity for cysteine proteases (Seglen, 1983). These molecules decrease endosomal degradation of molecules by a mechanism different than altering pH.
Transduction of polarized airway epithelial cells and primary human fibroblasts. rAAV infection of fully differentiated bronchial cells was performed as described in Duan et al. (1998). For infections from the apical surface of the airway cells, 5 μl rAAV was mixed with 50 μl of culture media and applied directly onto the apical compartment of Millicell inserts (MOI=10,000 particles/cell). During apical infection, the basolateral side of the Millicell was continuously bathed in culture media. Gene transfer to the basal side was performed by inverting Millicell inserts and applying viral vector to the bottom of the supporting filter membrane in a 50 μl volume for 2 hours. Subsequently, Millicell inserts were returned to the upright position, in the continued presence of the original viral inoculum plus an additional 450 μl of media. For both apical and basolateral infections, rAAV containing media was removed after 24 hours and replaced with either fresh culture media (for the basal side) or exposed to air (for the apical side). To test the effect of different agents on the efficiency of AAV transduction in polarized airway cells, 1 μl of each solution was mixed with AAV prior to infection of airway epithelia. Agents were usually presented during the 24 hours AAV infection period unless indicated otherwise.

[2] = Toxicity of proteasome inhibitors in mice, intra-tracheal and systemic (IV) delivery; type: in vivo; conditions: 10, 100 and 1000 fold higher doses than used in polarized airway cells
Procedure: Long-term enhancement of rAAV transduction by proteasome inhibitor in vivo. To evaluate the potential utility of proteasome inhibitors for in vivo gene therapy, both the toxicity and efficacy of these agents for in vivo rAAV mediated gene transfer in the mouse lung was tested. To assess the toxicity of these proteasome inhibitors in mice, 10, 100, and 1000 fold higher effective doses of LLnL or Z-LLL were administered than used to induce gene transfer in polarized airway cells, using both intra-tracheal and systemic (IV) delivery. No toxicity was indicated by histologic evaluation of the lung and liver (data not shown) or was evidenced by the death of animals. To investigate whether these proteasome inhibitors could improve rAAV transduction in vivo, AV.LacZ (5×10^10 particles) was delivered either alone or in the presence of 400 μM Z-LLL by intranasal administration. Mouse lungs were harvested at 3, 10 and 150 days post-infection to evaluate short and long term effects. […] Targeted transgene expression was predominantly confined to the conducting airways, rather than in the parenchyma. Alveolar cells were rarely transduced. […] The range of transgene expression in distal and proximal airways was 0 to 4% and 5 to 18%, respectively.

| Molecule | rAAV transduction (GFP expression) compared to untreated rAAV infected cells [1] | toxicity (histology of lung and liver, death of animals) [2] |
| --- | --- | --- |
| CC(C)C[C@@H](C=O)NC(=O)[C@H](CC(C)C)NC(=O)[C@H](CC(C)C)NC(=O)OCc1ccccc1 [Z-LLL, N-carbobenzoxyl-L-leucinyl-L-leucinyl-L-leucinal] (Cbz-Leu-Leu-Leu-aldehyde) | significantly increased rAAV transduction | No toxicity |
| N-acetyl-L-leucinyl-L-leucinal-L-norleucinal [LLnL] | significantly increased rAAV transduction | No toxicity |
